Test results reported in ChEMBL document CHEMBL4507291 (2021).

Columns and labels:
[1] = tested on: Proto-oncogene tyrosine-protein kinase receptor Ret (Homo sapiens), P07949 [V804M]
[2] = target: Serine/threonine-protein kinase MAK (Homo sapiens) (UniProt P20794)
[3] = target: D(4) dopamine receptor (Homo sapiens) (UniProt P21917); settings: Compound concentration 10.0 uM
[4] = target: Casein kinase I isoform gamma-1 (Homo sapiens) (UniProt Q9HCP0)
[5] = target: Serine/threonine-protein kinase 36 (Homo sapiens) (UniProt Q9NRP7)
[6] = target: Insulin receptor (Homo sapiens) (UniProt P06213)
[7] = tested on: Mast/stem cell growth factor receptor Kit (Homo sapiens), P10721 [V559D,T670I]
[8] = target: Serine/threonine-protein kinase Nek5 (Homo sapiens) (UniProt Q6P3R8)
[9] = target: Bone morphogenetic protein receptor type-1B (Homo sapiens) (UniProt O00238)
[10] = target: Cyclin-dependent kinase 19 (Homo sapiens) (UniProt Q9BWU1)
[11] = target: Serine/threonine-protein kinase STK11 (Homo sapiens) (UniProt Q15831)
[12] = tested on: Phosphatidylinositol 4,5-bisphosphate 3-kinase catalytic subunit alpha isoform (Homo sapiens), P42336 [E545K]
[13] = target: Rhodopsin kinase GRK1 (Homo sapiens) (UniProt Q15835)
[14] = target: Myosin-IIIa (Homo sapiens) (UniProt Q8NEV4)
[15] = target: RAC-alpha serine/threonine-protein kinase (Homo sapiens) (UniProt P31749)
[16] = target: Calcium-dependent protein kinase 1 (Plasmodium falciparum) (UniProt P62344)
[17] = target: BMP-2-inducible protein kinase (Homo sapiens) (UniProt Q9NSY1)
[18] = target: Ribosomal protein S6 kinase alpha-1 (Homo sapiens) (UniProt Q15418)
[19] = target: MAP kinase-interacting serine/threonine-protein kinase 1 (Homo sapiens) (UniProt Q9BUB5)
[20] = target: Cyclin-dependent kinase 9 (Homo sapiens) (UniProt P50750)
[21] = target: Hepatocyte growth factor receptor (Homo sapiens) (UniProt P08581)
[22] = target: G protein-coupled receptor kinase 4 (Homo sapiens) (UniProt P32298)
[23] = tested on: Mast/stem cell growth factor receptor Kit (Homo sapiens), P10721 [D816H]
[24] = target: T1, Inhibitor of nuclear factor kappa-B kinase subunit epsilon (Homo sapiens) (UniProt Q14164)
T1 sequence (whole entry): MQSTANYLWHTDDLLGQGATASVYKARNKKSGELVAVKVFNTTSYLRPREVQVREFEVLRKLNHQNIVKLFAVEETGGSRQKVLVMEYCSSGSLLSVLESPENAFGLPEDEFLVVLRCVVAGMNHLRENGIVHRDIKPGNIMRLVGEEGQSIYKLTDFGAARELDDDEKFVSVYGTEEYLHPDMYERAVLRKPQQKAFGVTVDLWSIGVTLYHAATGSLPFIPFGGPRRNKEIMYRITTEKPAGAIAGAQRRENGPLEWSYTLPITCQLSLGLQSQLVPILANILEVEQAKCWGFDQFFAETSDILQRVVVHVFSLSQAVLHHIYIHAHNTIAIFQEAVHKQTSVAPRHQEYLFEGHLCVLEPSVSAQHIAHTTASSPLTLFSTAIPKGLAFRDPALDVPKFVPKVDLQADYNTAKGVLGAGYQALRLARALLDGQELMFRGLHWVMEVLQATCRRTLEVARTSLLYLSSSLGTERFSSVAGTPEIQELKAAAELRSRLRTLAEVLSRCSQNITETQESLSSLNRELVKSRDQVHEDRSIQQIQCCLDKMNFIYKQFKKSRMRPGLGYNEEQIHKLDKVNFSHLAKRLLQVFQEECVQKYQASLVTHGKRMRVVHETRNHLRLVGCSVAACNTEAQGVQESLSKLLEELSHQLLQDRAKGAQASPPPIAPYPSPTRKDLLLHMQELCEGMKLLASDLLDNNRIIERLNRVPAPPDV

[25] = Compound concentration 1000.0 nM
[26] = Compound concentration 100.0 nM

Chain of RAC-alpha serine/threonine-protein kinase (Homo sapiens) (P31749 whole entry): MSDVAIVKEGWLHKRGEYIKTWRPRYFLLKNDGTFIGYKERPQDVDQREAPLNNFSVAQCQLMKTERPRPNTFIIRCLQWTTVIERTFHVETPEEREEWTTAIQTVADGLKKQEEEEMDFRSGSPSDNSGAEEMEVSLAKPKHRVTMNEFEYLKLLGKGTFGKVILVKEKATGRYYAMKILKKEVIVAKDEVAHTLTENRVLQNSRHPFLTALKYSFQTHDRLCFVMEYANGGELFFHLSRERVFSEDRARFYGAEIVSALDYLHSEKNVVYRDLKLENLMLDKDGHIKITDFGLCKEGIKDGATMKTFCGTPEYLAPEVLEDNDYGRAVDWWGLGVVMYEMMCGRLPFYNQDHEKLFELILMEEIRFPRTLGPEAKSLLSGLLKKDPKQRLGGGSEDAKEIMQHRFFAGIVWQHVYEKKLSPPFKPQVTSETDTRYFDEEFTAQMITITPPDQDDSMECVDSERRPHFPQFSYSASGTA
Chain of Calcium-dependent protein kinase 1 (Plasmodium falciparum) (P62344 2-524 limits assumed): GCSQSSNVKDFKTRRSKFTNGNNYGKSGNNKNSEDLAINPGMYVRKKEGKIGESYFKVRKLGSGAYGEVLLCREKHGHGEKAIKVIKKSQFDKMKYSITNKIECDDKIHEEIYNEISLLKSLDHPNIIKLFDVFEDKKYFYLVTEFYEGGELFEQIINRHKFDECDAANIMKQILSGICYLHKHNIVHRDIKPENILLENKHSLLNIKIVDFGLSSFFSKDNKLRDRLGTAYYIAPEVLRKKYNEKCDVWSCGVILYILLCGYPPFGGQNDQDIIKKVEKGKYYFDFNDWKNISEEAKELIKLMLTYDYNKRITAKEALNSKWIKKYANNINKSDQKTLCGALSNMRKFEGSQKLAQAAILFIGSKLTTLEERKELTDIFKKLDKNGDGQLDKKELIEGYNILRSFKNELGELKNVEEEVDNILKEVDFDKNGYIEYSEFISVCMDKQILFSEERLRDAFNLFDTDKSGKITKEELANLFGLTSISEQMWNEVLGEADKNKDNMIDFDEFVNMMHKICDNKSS
Chain of Phosphatidylinositol 4,5-bisphosphate 3-kinase catalytic subunit alpha isoform (Homo sapiens), P42336 [E545K] (P42336 whole entry E545K, canonical isoform): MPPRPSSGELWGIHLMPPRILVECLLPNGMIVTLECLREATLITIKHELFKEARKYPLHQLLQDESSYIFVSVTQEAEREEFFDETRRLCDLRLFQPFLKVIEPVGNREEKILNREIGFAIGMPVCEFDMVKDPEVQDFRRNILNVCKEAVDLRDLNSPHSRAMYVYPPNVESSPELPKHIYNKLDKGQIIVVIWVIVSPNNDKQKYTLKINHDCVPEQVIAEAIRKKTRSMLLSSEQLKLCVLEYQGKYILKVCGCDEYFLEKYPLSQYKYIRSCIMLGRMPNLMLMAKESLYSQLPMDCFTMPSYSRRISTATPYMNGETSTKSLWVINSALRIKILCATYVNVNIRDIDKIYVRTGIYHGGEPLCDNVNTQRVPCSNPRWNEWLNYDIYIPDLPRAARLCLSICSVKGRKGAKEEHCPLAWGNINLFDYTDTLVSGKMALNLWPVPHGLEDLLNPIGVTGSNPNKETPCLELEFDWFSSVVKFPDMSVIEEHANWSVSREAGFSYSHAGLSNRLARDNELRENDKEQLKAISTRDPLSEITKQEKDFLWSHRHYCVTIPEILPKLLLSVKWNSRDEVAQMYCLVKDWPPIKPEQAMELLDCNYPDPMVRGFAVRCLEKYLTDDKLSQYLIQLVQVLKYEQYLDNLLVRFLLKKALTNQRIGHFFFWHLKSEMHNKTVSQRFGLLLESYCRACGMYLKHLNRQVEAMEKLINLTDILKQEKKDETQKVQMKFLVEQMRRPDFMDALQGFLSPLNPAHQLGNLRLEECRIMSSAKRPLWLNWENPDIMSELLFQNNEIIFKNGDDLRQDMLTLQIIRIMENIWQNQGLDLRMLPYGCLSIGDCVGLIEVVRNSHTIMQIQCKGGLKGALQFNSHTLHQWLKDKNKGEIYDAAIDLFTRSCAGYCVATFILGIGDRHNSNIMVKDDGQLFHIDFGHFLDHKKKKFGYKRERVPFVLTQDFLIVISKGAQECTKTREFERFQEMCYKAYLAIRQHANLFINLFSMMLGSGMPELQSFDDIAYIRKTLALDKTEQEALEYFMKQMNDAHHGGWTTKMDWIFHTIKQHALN
Chain of Bone morphogenetic protein receptor type-1B (Homo sapiens) (O00238 whole entry): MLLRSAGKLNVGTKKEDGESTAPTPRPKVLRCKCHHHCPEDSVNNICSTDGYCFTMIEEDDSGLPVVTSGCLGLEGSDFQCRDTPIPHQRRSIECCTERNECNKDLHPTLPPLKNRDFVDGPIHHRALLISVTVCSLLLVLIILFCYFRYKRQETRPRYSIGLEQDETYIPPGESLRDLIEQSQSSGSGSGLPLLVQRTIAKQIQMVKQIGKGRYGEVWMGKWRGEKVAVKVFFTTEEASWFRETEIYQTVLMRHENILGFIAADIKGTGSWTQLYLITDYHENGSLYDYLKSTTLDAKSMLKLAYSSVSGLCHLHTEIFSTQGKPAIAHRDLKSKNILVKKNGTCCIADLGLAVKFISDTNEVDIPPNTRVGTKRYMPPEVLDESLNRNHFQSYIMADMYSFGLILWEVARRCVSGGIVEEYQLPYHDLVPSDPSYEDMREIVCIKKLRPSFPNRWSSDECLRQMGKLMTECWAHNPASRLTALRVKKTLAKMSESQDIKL
Chain of Mast/stem cell growth factor receptor Kit (Homo sapiens), P10721 [V559D,T670I] (P10721 whole entry V559D/T670I): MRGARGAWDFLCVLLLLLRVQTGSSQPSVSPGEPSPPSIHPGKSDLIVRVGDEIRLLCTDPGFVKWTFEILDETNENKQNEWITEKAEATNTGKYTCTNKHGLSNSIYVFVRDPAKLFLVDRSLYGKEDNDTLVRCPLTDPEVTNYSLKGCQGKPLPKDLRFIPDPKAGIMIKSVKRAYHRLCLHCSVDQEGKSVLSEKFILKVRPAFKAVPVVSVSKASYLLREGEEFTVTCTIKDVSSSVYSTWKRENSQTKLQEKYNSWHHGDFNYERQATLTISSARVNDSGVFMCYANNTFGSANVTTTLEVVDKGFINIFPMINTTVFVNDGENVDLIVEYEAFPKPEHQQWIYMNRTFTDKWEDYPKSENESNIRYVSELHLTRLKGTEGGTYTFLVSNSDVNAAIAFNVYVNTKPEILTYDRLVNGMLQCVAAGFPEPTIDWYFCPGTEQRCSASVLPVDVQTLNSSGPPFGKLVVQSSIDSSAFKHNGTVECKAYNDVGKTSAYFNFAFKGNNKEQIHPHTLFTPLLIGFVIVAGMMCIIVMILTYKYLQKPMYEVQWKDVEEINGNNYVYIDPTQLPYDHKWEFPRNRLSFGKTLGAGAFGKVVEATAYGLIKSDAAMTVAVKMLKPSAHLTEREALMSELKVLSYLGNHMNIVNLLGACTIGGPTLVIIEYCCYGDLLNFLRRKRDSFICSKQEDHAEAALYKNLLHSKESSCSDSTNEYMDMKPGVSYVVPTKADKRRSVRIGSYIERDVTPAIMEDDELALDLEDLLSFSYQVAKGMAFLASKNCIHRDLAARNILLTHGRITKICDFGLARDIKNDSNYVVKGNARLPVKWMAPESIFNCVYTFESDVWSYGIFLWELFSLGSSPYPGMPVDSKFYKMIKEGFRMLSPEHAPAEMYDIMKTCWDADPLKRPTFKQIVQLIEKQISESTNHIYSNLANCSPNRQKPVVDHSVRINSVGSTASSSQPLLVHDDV
Chain of Serine/threonine-protein kinase 36 (Homo sapiens) (Q9NRP7 whole entry): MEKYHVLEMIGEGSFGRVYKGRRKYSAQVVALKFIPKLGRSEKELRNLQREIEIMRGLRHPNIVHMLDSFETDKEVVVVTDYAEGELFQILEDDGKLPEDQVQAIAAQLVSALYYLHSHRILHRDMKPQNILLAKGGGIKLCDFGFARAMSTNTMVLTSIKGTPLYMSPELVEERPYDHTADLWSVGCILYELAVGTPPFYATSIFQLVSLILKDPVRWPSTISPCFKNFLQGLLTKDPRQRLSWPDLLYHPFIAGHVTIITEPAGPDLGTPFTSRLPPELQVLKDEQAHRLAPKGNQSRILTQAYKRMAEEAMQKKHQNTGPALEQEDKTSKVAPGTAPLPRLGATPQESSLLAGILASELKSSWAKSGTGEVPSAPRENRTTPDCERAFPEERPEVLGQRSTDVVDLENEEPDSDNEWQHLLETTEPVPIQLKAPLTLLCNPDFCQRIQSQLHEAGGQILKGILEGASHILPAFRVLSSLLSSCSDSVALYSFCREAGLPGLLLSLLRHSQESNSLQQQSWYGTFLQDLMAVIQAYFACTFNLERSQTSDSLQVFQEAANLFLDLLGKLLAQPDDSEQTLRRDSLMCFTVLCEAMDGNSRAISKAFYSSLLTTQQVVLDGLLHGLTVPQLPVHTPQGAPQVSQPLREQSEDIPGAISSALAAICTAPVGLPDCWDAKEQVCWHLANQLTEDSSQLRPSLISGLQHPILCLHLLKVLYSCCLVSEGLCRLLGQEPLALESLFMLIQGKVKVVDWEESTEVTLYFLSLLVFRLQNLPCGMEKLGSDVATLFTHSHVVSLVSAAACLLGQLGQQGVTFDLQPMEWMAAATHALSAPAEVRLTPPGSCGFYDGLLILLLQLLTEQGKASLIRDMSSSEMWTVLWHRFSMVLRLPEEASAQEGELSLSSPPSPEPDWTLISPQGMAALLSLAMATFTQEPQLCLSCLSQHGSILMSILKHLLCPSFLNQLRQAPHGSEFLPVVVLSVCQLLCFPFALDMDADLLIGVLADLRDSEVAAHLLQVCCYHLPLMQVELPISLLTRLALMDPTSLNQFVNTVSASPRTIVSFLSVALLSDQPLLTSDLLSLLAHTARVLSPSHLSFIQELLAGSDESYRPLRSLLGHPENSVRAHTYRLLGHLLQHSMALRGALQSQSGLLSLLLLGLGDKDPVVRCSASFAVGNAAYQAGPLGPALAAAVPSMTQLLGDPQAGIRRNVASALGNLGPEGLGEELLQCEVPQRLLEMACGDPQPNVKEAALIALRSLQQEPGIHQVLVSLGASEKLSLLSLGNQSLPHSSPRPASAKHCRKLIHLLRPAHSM
Chain of Mast/stem cell growth factor receptor Kit (Homo sapiens), P10721 [D816H] (P10721 whole entry D816H): as the sequence (P10721 whole entry V559D/T670I) above, with D559V, I670T, D816H counted along it

C[C@@H]1CN(c2cc(-c3nn(C)c4ccc(OC5(C)CC5)cc34)ncn2)C[C@H](C)O1 [MLi-2-NC]
inactive: residual activity [1, 25] 100% | residual activity [2, 25] 100% | inhibition [3] -2.65% | residual activity [4, 25] 89% | residual activity [5, 25] 93% | residual activity [6, 25] 100% | residual activity [7, 25] 100% | residual activity [8, 25] 100% | residual activity [9, 25] 77% | residual activity [10, 25] 92% | residual activity [11, 25] 94% | residual activity [12, 25] 79% | residual activity [13, 25] 100% | residual activity [14, 25] 100% | residual activity [15, 25] 100% | residual activity [16, 25] 83% | residual activity [17, 25] 100% | residual activity [18, 25] 100% | residual activity [19, 25] 79% | residual activity [20, 25] 84% | residual activity [21, 25] 100% | residual activity [22, 25] 96% | residual activity [23, 25] 64% | residual activity [24, 25] 65%

C[C@@H]1CN(c2cc(-c3n[nH]c4ccc(OC5(C)CC5)cc34)ncn2)C[C@H](C)O1 [MLi-2]
inactive: residual activity [1, 26] 97% | residual activity [2, 26] 95% | inhibition [3] -4.87% | residual activity [4, 26] 100% | residual activity [5, 26] 86% | residual activity [6, 26] 100% | residual activity [7, 26] 95% | residual activity [8, 26] 100% | residual activity [9, 26] 81% | residual activity [10, 26] 70% | residual activity [11, 26] 83% | residual activity [12, 26] 65% | residual activity [13, 26] 83% | residual activity [14, 26] 100% | residual activity [15, 26] 87% | residual activity [16, 26] 94% | residual activity [17, 26] 100% | residual activity [18, 26] 97% | residual activity [19, 26] 67% | residual activity [20, 26] 80% | residual activity [21, 26] 100% | residual activity [22, 26] 100% | residual activity [23, 26] 67% | residual activity [24, 26] 74%
